ChEMBL document CHEMBL1201862, “PubChem BioAssay data set” (2004)
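Step 1: Grow cells in 96-well plates. Step 2: Expose to compound for 48 hours at 5 concentrations. Step 3: Interpolate endpoints linearly; if unreached, use highest concentration. GI50 is the concentration that inhibits growth by half.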 Activity calls are given as the source filed them. Cut-off read from the data, not from the text of the source: active = GI50 up to about 1.1 µM and inactive = higher.

Key:
Assay in all cases: NCI-60 cell line screen, 48 h
[1] = tested on: 786-0
[2] = tested on: Hs-578T
[3] = tested on: MDA-MB-435
[4] = tested on: HCT-15
[5] = tested on: EKVX
[6] = tested on: RXF 393
[7] = tested on: SNB-75
[8] = tested on: BT-549
[9] = tested on: MCF7
[10] = tested on: UO-31
[11] = tested on: OVCAR-3
[12] = tested on: SK-OV-3
[13] = tested on: TK-10
[14] = tested on: SK-MEL-2
[15] = tested on: OVCAR-8
[16] = tested on: CCRF-CEM
[17] = tested on: SF-295
[18] = tested on: HOP-92
[19] = tested on: SF-268
[20] = tested on: MDA-MB-231
[21] = tested on: NCI/ADR-RES
[22] = tested on: SN12C
[23] = tested on: NCI-H23
[24] = tested on: SK-MEL-28
[25] = tested on: KM12
[26] = tested on: UACC-257
[27] = tested on: IGROV-1
[28] = tested on: SK-MEL-5
[29] = tested on: ACHN
[30] = tested on: OVCAR-4
[31] = tested on: M14
[32] = tested on: COLO 205
[33] = tested on: DU-145
[34] = tested on: PC-3
[35] = tested on: UACC-62
[36] = tested on: NCI-H460
[37] = tested on: MOLT-4
[38] = tested on: LOX IMVI
[39] = tested on: CAKI-1
[40] = tested on: SR
[41] = tested on: Malme-3M
[42] = tested on: HOP-62
[43] = tested on: HCT-116
[44] = tested on: U-251
[45] = tested on: K562
[46] = tested on: HT-29
[47] = tested on: A549
[48] = tested on: RPMI-8226
[49] = tested on: OVCAR-5
[50] = tested on: SW-620
[51] = tested on: SF-539
[52] = tested on: T47D
[53] = tested on: NCI-H522
[54] = tested on: SNB-19
[55] = tested on: NCI-H226
[56] = tested on: A498
[57] = tested on: HCC 2998
[58] = tested on: HL-60

O=c1cccc(Cl)[nH]1
GI50 [1]: > 100 µM (inactive)
GI50 [2]: > 100 µM (inactive)
GI50 [3]: > 100 µM (inactive)
GI50 [4]: > 100 µM
GI50 [5]: > 100 µM (inactive)
GI50 [6]: > 100 µM (inactive)
GI50 [7]: > 100 µM (inactive)
GI50 [8]: > 100 µM (inactive)
GI50 [9]: > 100 µM (inactive)
GI50 [10]: > 100 µM (inactive)
GI50 [11]: > 100 µM (inactive)
GI50 [12]: > 100 µM (inactive)
GI50 [13]: > 100 µM (inactive)
GI50 [14]: > 100 µM (inactive)
GI50 [15]: > 100 µM (inactive)
GI50 [16]: > 100 µM (inactive)
GI50 [17]: > 100 µM (inactive)
GI50 [18]: > 100 µM (inactive)
GI50 [19]: > 100 µM (inactive)
GI50 [20]: > 100 µM (inactive)
GI50 [21]: > 100 µM (inactive)
GI50 [22]: > 100 µM (inactive)
GI50 [23]: > 100 µM (inactive)
GI50 [24]: > 100 µM (inactive)
GI50 [25]: > 100 µM (inactive)
GI50 [26]: > 100 µM (inactive)
GI50 [27]: > 100 µM (inactive)
GI50 [28]: 27 µM (inactive)
GI50 [29]: > 100 µM (inactive)
GI50 [30]: > 100 µM (inactive)
GI50 [31]: > 100 µM (inactive)
GI50 [32]: > 100 µM (inactive)
GI50 [33]: > 100 µM (inactive)
GI50 [34]: > 100 µM (inactive)
GI50 [35]: > 100 µM (inactive)
GI50 [36]: > 100 µM (inactive)
GI50 [37]: > 100 µM (inactive)
GI50 [38]: > 100 µM (inactive)
GI50 [39]: > 100 µM (inactive)
GI50 [40]: > 100 µM (inactive)
GI50 [41]: > 100 µM (inactive)
GI50 [42]: > 100 µM (inactive)
GI50 [43]: > 100 µM (inactive)
GI50 [44]: > 100 µM (inactive)
GI50 [45]: > 100 µM (inactive)
GI50 [46]: > 100 µM (inactive)
GI50 [47]: > 100 µM (inactive)
GI50 [48]: > 100 µM (inactive)
GI50 [49]: > 100 µM (inactive)
GI50 [50]: > 100 µM (inactive)
GI50 [51]: > 100 µM (inactive)
GI50 [52]: > 100 µM (inactive)
GI50 [53]: > 100 µM (inactive)
GI50 [54]: > 100 µM (inactive)
GI50 [55]: > 100 µM (inactive)

Nc1ccc(SC23CC4CC(CC(C4)C2)C3)cc1
GI50 [1]: > 100 µM (inactive)
GI50 [2]: > 100 µM (inactive)
GI50 [3]: > 100 µM (inactive)
GI50 [4]: > 100 µM
GI50 [5]: > 100 µM (inactive)
GI50 [6]: 27.5 µM (inactive)
GI50 [8]: > 100 µM (inactive)
GI50 [9]: 61.8 µM (inactive)
GI50 [10]: > 100 µM (inactive)
GI50 [11]: > 100 µM (inactive)
GI50 [12]: > 100 µM (inactive)
GI50 [13]: > 100 µM (inactive)
GI50 [14]: > 100 µM (inactive)
GI50 [15]: > 100 µM (inactive)
GI50 [56]: > 100 µM (inactive)
GI50 [16]: > 100 µM (inactive)
GI50 [17]: 92.7 µM (inactive)
GI50 [19]: 54.5 µM (inactive)
GI50 [20]: > 100 µM (inactive)
GI50 [21]: > 100 µM (inactive)
GI50 [22]: > 100 µM (inactive)
GI50 [23]: > 100 µM (inactive)
GI50 [24]: > 100 µM (inactive)
GI50 [25]: > 100 µM (inactive)
GI50 [26]: > 100 µM (inactive)
GI50 [27]: > 100 µM (inactive)
GI50 [28]: > 100 µM (inactive)
GI50 [29]: > 100 µM (inactive)
GI50 [31]: > 100 µM (inactive)
GI50 [32]: > 100 µM (inactive)
GI50 [33]: > 100 µM (inactive)
GI50 [34]: > 100 µM (inactive)
GI50 [57]: > 100 µM (inactive)
GI50 [35]: > 100 µM (inactive)
GI50 [36]: > 100 µM (inactive)
GI50 [38]: > 100 µM (inactive)
GI50 [39]: > 100 µM (inactive)
GI50 [40]: > 100 µM (inactive)
GI50 [41]: > 100 µM (inactive)
GI50 [42]: > 100 µM (inactive)
GI50 [43]: > 100 µM (inactive)
GI50 [58]: > 100 µM (inactive)
GI50 [44]: 78.3 µM (inactive)
GI50 [45]: > 100 µM (inactive)
GI50 [46]: > 100 µM (inactive)
GI50 [47]: > 100 µM (inactive)
GI50 [48]: > 100 µM (inactive)
GI50 [49]: > 100 µM (inactive)
GI50 [50]: > 100 µM (inactive)
GI50 [51]: > 100 µM (inactive)
GI50 [52]: > 100 µM (inactive)
GI50 [53]: > 100 µM (inactive)
GI50 [54]: > 100 µM (inactive)
GI50 [55]: < 0.01 µM (active)
